Key:
[1] = molecular target: T1, Muscarinic acetylcholine receptor M2 (Homo sapiens, UniProt P08172)
T1 sequence (P08172 whole entry): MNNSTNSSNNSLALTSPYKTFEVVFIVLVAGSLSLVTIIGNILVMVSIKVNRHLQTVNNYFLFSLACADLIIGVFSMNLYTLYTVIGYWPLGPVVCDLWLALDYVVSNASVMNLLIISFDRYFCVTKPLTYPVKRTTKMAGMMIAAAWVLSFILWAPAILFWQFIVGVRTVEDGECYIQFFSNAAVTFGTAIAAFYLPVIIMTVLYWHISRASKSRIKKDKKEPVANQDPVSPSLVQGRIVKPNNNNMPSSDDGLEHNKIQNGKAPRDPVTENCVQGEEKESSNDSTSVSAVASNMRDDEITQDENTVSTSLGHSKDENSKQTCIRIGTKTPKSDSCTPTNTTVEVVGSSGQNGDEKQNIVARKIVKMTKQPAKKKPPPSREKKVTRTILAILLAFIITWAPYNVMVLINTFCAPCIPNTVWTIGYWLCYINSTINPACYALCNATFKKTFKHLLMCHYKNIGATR

[2] = molecular target: Voltage-dependent L-type calcium channel subunit alpha-1C (Homo sapiens, UniProt Q13936); format: functional, cell-based
[3] = molecular target: Beta-1 adrenergic receptor (Homo sapiens, UniProt P08588); format: functional, cell-based
Histamine H1 receptor = Histamine H1 receptor (Homo sapiens, UniProt P35367); format: functional, cell-based
Note: assay procedure not described here.

Sequence of Histamine H1 receptor (P35367 whole entry): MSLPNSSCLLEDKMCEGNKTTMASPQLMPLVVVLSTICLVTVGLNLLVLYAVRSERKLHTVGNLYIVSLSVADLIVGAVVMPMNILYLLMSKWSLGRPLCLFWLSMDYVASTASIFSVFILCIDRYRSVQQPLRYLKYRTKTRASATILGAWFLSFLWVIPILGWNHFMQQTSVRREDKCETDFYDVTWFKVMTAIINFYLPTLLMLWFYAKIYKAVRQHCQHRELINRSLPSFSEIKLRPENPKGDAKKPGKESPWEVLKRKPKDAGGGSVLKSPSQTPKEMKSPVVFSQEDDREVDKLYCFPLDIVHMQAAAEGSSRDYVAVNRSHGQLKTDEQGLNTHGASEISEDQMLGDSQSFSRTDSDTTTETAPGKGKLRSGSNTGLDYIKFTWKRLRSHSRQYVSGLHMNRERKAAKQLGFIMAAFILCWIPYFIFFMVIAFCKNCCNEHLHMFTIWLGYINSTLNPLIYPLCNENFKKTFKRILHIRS
Sequence of Beta-1 adrenergic receptor (P08588 whole entry): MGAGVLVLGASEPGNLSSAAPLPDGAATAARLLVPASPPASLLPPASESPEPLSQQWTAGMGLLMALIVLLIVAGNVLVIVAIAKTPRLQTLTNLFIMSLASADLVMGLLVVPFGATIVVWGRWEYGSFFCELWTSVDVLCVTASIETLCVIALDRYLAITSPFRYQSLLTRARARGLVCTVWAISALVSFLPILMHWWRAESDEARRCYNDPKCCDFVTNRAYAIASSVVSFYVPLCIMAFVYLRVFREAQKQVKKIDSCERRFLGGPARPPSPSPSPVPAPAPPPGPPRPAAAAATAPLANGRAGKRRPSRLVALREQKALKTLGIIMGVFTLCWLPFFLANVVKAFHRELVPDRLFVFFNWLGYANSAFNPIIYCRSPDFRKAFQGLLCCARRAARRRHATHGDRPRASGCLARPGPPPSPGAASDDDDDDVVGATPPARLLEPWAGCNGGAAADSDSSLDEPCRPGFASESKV
Sequence of Voltage-dependent L-type calcium channel subunit alpha-1C (Q13936 whole entry): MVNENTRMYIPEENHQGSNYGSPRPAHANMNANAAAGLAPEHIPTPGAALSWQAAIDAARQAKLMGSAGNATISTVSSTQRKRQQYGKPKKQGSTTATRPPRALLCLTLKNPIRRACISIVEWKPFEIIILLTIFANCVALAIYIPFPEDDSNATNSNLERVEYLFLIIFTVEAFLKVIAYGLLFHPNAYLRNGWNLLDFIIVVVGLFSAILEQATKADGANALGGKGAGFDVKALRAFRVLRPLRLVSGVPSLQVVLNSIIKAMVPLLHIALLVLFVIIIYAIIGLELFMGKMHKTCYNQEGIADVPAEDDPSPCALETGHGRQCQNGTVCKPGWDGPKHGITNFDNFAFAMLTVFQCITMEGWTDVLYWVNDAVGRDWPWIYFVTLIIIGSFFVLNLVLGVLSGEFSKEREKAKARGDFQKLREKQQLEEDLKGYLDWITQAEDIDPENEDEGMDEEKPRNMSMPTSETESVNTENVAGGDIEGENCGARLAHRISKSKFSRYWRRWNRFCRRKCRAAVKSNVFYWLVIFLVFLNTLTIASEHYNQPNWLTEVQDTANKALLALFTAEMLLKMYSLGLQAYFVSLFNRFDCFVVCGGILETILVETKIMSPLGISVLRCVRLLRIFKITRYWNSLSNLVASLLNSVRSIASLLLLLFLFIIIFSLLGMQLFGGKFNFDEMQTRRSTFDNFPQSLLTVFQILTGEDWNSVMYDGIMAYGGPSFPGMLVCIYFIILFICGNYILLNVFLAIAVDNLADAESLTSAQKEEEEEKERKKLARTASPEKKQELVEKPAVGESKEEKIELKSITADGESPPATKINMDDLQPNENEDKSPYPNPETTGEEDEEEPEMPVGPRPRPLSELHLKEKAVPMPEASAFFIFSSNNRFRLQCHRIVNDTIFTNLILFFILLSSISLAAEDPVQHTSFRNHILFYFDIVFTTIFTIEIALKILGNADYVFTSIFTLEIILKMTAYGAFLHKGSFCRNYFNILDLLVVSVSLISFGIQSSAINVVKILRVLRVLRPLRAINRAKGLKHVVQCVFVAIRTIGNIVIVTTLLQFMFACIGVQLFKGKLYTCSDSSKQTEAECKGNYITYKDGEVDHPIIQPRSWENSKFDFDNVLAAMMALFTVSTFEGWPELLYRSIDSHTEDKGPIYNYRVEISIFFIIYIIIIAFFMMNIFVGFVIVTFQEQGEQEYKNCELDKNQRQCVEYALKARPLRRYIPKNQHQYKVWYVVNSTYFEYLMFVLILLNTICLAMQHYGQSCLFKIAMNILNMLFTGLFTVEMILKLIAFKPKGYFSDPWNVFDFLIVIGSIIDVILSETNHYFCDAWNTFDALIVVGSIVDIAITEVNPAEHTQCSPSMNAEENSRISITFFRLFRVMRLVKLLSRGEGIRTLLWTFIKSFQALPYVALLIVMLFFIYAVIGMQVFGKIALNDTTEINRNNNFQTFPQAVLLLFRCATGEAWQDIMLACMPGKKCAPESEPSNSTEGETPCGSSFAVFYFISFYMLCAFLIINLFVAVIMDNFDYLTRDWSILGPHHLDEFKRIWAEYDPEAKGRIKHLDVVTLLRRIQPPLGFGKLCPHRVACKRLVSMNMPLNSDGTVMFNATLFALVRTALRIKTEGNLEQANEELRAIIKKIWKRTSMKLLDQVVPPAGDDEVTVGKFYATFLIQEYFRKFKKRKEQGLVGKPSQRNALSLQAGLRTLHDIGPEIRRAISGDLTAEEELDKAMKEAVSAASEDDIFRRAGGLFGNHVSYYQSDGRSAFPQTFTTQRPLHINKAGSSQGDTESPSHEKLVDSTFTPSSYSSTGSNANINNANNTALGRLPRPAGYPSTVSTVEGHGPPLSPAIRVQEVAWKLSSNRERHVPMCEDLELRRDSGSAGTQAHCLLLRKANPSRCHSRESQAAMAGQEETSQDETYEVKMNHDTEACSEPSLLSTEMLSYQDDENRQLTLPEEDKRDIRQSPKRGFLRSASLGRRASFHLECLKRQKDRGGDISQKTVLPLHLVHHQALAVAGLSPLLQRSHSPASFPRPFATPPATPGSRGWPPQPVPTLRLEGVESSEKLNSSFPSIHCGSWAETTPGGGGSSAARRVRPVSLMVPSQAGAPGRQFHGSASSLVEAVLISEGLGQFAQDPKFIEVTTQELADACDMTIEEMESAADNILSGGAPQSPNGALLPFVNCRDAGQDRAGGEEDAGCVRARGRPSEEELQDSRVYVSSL

## OC(CCCN1CCCCC1)(c1ccccc1)c1ccccc1 [DIPHENIDOL]
[1]
  AC50: 0.38 µM

## O=C(CCCN1CC=C(n2c(=O)[nH]c3ccccc32)CC1)c1ccc(F)cc1 [DROPERIDOL]
[2]
  AC50: > 50 µM

## CNC(=O)Oc1ccc2c(c1)[C@]1(C)CCN(C)[C@@H]1N2C [PHYSOSTIGMINE]
[3]
  AC50: > 30 µM

## O=C(CCCN1CCC2(CC1)C(=O)NCN2c1ccccc1)c1ccc(F)cc1 [SPIPERONE]
Histamine H1 receptor
  AC50: 1.2 µM
